Measurements reported in ChEMBL document CHEMBL2163249, “Exploration of natural compounds as sources of new bifunctional scaffolds targeting cholinesterases and beta amyloid aggregation: the case of chelerythrine” (Bioorg Med Chem, 2012).

Key:
[1] = molecular target: Acetylcholinesterase (Electrophorus electricus) (UniProt O42275); settings: at 2 mg/mL
Description: Inhibition of electric eel AChE at 2 mg/ml by Ellman's method

[2] = molecular target: Cholinesterase (Equus caballus) (UniProt P81908); settings: at 2 mg/mL
Sequence of Cholinesterase (Equus caballus) (P81908 whole entry): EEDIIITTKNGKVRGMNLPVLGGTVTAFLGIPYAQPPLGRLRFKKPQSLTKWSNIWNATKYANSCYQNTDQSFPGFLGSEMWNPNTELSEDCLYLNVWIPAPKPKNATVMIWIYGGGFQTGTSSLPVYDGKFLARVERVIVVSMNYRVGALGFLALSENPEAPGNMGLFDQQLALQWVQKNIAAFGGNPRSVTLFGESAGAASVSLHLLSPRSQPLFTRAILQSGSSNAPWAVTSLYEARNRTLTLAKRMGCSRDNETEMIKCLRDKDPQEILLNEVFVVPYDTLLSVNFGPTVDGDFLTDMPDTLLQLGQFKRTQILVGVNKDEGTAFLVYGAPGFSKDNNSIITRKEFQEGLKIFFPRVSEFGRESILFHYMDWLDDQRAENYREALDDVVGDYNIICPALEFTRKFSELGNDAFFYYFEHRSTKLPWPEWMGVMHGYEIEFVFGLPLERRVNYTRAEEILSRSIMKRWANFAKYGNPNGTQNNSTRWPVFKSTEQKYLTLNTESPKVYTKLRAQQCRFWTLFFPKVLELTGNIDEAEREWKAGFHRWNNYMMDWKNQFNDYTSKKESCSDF
Description: Inhibition of horse BChE at 2 mg/ml by Ellman's method

Sequence of Acetylcholinesterase (Electrophorus electricus) (O42275 24-633 limits assumed): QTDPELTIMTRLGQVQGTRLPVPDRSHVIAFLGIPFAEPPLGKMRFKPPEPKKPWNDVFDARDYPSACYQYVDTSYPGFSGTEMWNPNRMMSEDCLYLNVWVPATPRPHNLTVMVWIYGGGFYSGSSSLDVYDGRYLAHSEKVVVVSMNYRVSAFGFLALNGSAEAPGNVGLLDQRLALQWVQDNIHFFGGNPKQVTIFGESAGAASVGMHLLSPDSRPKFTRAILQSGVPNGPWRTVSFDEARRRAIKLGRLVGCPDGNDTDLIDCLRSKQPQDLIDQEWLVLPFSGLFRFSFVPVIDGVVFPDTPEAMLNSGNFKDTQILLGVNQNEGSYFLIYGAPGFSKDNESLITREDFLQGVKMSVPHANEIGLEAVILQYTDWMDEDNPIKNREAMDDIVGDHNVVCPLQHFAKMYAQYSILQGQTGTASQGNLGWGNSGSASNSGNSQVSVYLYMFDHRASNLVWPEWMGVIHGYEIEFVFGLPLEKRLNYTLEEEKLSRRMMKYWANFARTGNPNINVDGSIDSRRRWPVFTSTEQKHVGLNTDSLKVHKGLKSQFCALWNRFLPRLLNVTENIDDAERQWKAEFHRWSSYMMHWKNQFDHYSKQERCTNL

SMILES | inhibition [1] | inhibition [2]
COc1ccc([C@@H]2CC(=O)c3c(O)cc(O[C@@H]4O[C@H](CO)[C@@H](O)[C@H](O)[C@H]4O[C@@H]4O[C@@H](C)[C@H](O)[C@@H](O)[C@H]4O)cc3O2)cc1O | 4.86% | 0.1%
COc1ccc(C[C@H](N)C(=O)N[C@H]2[C@@H](O)[C@H](n3cnc4c(N(C)C)ncnc43)O[C@@H]2CO)cc1 | -7.92% | -9.98%
C[C@H]1[C@H](C)CC[C@]2(C(=O)O)CC[C@]3(C)C(=CC[C@@H]4[C@@]5(C)C[C@@H](O)[C@H](O)[C@@](C)(CO)[C@@H]5CC[C@]43C)[C@H]12 | 3.99% | -8.64%
CC[C@H](C)C(=O)O[C@H]1CCC=C2C=C[C@H](C)[C@H](CC[C@@H]3C[C@@H](O)CC(=O)O3)[C@H]21 | -9.46% | 7.39%
CC(C)[C@@H]1NC(=O)[C@H](C)OC(=O)[C@@H](C(C)C)NC(=O)[C@@H](C(C)C)OC(=O)[C@H](C(C)C)NC(=O)[C@H](C)OC(=O)[C@@H](C(C)C)NC(=O)[C@@H](C(C)C)OC(=O)[C@H](C(C)C)NC(=O)[C@H](C)OC(=O)[C@@H](C(C)C)NC(=O)[C@@H](C(C)C)OC1=O | 16.6% | -1.5%
COc1cc2c(c(OC)c1OC)-c1c(cc(OC)c(OC)c1OC)C[C@H](C)[C@H](C)C2 | -1.7% | -4.82%
CC(=O)O[C@H]1[C@H]2[C@@H](OC(=O)Cc3ccccc3)[C@@H](C)C[C@]2(OC(C)=O)C(=O)/C(C)=C/[C@@H]2[C@H](CC[C@@]13CO3)C2(C)C | -2.46% | -5.46%
CCn1cc(C(=O)O)c(=O)c2ccc(C)nc21 | 0.82% | -8.73%
CCCCCCCCCCCCCC[C@@H](O)[C@@H](O)[C@@H](N)CO | 24.4% | 7.46%
C[C@@H]1O[C@@H](O[C@@H]2[C@@H](O)[C@H](O)[C@@H](CO)O[C@H]2c2c(O)cc(O)c3c(=O)cc(-c4ccc(O)cc4)oc23)[C@H](O)[C@H](O)[C@H]1O | 25.9% | -3.3%
COc1c2c(cc3c1OCO3)CCN(C)C2 | 9.58% | 29.9%
O=C(/C=C/c1ccc(O)cc1)CC(=O)/C=C/c1ccc(O)cc1 | 2% | 7.13%
Cc1cc(O)c2c(c1)C(=O)c1cc(O)cc(O)c1C2=O | 24.3% | 1.03%
O=c1cc(-c2ccccc2)oc2cc(O)ccc12 | 24.4% | -0.25%
CC(C)=CC[C@@H](OC(=O)C=C(C)C)C1=CC(=O)c2c(O)ccc(O)c2C1=O | 22.8% | 6.03%
CC1=C(O)C(=O)C=C2C1=CC=C1[C@@]2(C)CC[C@@]2(C)[C@@H]3C[C@](C)(C(=O)O)CC[C@]3(C)CC[C@]12C | 22.1% | 1.01%
C[C@@H]1O[C@@H](OC[C@H]2O[C@@H](Oc3cc(O)c4c(c3)O[C@H](c3ccc(O)cc3)CC4=O)[C@H](O)[C@@H](O)[C@@H]2O)[C@H](O)[C@H](O)[C@H]1O | 22.1% | -0.5%
CC1=C(/C=C/C(C)=C\C=C\C(C)=C\C(=O)O)C(C)(C)CCC1 | 14.3% | -2.78%
CCC[C@@H]1C[C@@H](C(=O)N[C@@H]([C@H]2O[C@H](SC)[C@H](O)[C@@H](O)[C@H]2O)[C@@H](C)O)N(C)C1 | -3.63% | -2.36%
COc1cc2c(cc1CC=C(C)C)C(=O)C[C@@H](c1ccc(O)cc1)O2 | 23.2% | 4.89%
COc1cc(-c2oc3cc(O)cc(O)c3c(=O)c2OC2O[C@H](CO)[C@@H](O)[C@H](O)[C@H]2O)cc(OC)c1O (some centres undefined) | 3.25% | 2.12%

SMILES | inhibition [1] | inhibition [2]
C[C@H]1CCC/C=C/[C@@H]2C[C@H](O)C[C@H]2[C@H](O)/C=C/C(=O)O1 | -3.21% | 5.24%
O=c1c(-c2ccc(O)cc2)coc2cc(O[C@@H]3O[C@H](CO)[C@@H](O)[C@H](O)[C@H]3O)cc(O)c12 | 24.6% | 1.82%
CC[C@@H](C(=O)[C@@H](C)[C@@H](O)[C@H](C)[C@@H]1O[C@@H]([C@@H](CC)C(=O)O)CC[C@@H]1C)[C@H]1O[C@]2(C=C[C@@H](O)[C@]3(CC[C@@](C)([C@H]4CC[C@](O)(CC)[C@H](C)O4)O3)O2)[C@H](C)C[C@@H]1C | 4.25% | 3.73%
COc1cc2c(cc1OC)[C@@]13CC[N+]4([O-])CC5=CCO[C@H]6CC(=O)N2[C@H]1[C@H]6[C@H]5C[C@@H]34 (some centres undefined) | 12.8% | -6.05%
C=CCc1cc(OC)c2c(c1)OCO2 | 6.75% | -9.87%
CCN1C[C@]2(COC)CC[C@H](OC)[C@]34C1[C@H]([C@H](OC)[C@H]23)[C@@]1(OC(C)=O)C[C@H](OC)[C@@]2(O)C[C@@H]4[C@@H]1[C@H]2C(=O)c1ccc(OC)cc1 | 3.52% | 9.36%
CO[C@H]1C[C@H](O[C@H]2[C@H](C)[C@@H](O[C@@H]3O[C@H](C)C[C@H](N(C)C)[C@H]3OC(C)=O)[C@@H](C)C[C@@]3(CO3)C(=O)[C@H](C)[C@@H](OC(C)=O)[C@@H](C)[C@@H](C)OC(=O)[C@@H]2C)O[C@@H](C)[C@@H]1OC(C)=O | 14.8% | -1.09%
CCCCCCCCCCCCC/C=C/[C@@H](O)[C@H](CO)NC(=O)CCCCC | 9.07% | 4.36%
C[C@@H]1O[C@H](C[N+](C)(C)C)C[C@H]1O | -6.43% | -6.38%
O=C1c2ccccc2-n2c1nc1ccccc1c2=O | 35.3% | -2.13%
COc1ccc(-c2coc3cc(O)ccc3c2=O)cc1 | 1.62% | 0.57%
CO[C@@]12[C@H](COC(N)=O)C3=C(C(=O)C(C)=C(N)C3=O)N1C[C@@H]1N[C@@H]12 | 4.01% | 3.34%
CC[C@]1(O)C[C@H]2CN(CCc3c([nH]c4ccccc34)[C@@](C(=O)OC)(c3cc4c(cc3OC)N(C=O)[C@H]3[C@@](O)(C(=O)OC)[C@H](OC(C)=O)[C@]5(CC)C=CCN6CC[C@]43[C@@H]65)C2)C1 | 10.9% | 2.81%
C[C@H]1CCC[C@@H](O)CCCCCc2cc(O)cc(O)c2C(=O)O1 | -1.34% | -4.26%
O=c1oc2cc(O)ccc2c2oc3cc(O)ccc3c12 | 3.18% | 9.06%
COc1ccc(/C=C/c2cc(OC)cc(=O)o2)cc1 | 7.69% | -1.55%
COc1cc2c3cc1Oc1cc(ccc1O)C[C@@H]1c4c(cc(OC)c(O)c4Oc4ccc(cc4)C[C@@H]3N(C)CC2)CC[N+]1(C)C | 5.5% | 3.03%
CO[C@@H]1[C@H](OC(=O)/C=C/C=C/C=C/C=C/C(=O)O)CC[C@]2(CO2)[C@H]1[C@@]1(C)O[C@@H]1CC=C(C)C | -8.57% | -3.3%
C[C@H]1[C@H](C)CC[C@]2(C(=O)O)CC[C@]3(C)C(=CC[C@@H]4[C@@]5(C)CC[C@H](O)C(C)(C)[C@@H]5CC[C@]43C)[C@H]12 | 16.8% | 5.32%
O=C(O)c1cc(N(Cc2ccccc2O)Cc2ccccc2O)ccc1O | 2.48% | 1.67%
COc1ccc2c(c1)[nH]c1c(C)nccc12 | 50.9% | 12.1%

SMILES | inhibition [1] | inhibition [2]
O=c1cc(-c2ccccc2)oc2cc(O)c(O)c(O)c12 | -3.74% | 15%
O=c1c(O)c(-c2ccccc2)oc2cc(O)cc(O)c12 | 6.98% | 2.59%
O=c1c(O)c(-c2ccccc2O)oc2cc(O)cc(O)c12 | 23% | 1.68%
CC(C)(O)[C@@H]1[C@H]2OC(=O)[C@@H]1[C@]1(O)C[C@H]3O[C@]34C(=O)O[C@H]2[C@]14C | 22.6% | 1.96%
COc1ccc(-c2cc(=O)c3ccc(O)cc3o2)cc1 | 30.6% | 6.46%
COC1=C(N)C(=O)c2nc(-c3nc(C(=O)O)c(C)c(-c4ccc(OC)c(OC)c4O)c3N)ccc2C1=O | -2.66% | -5.44%
Cc1c(C(=O)O)c(O)cc2c1C(=O)c1c(O)c([C@@H]3O[C@H](CO)[C@@H](O)[C@H](O)[C@H]3O)c(O)c(O)c1C2=O | 21.5% | -1.98%
Cc1c2c(c(O)c3c(O)cccc13)C(=O)O[C@H]2[C@@H]1[C@H](O)C(=O)C(C(N)=O)=C(O)[C@H]1N(C)C | 16.9% | 7.3%
CCCCC[C@H](O)/C=C/C1=C(CCCCCCC(=O)O)C(=O)CC1 | 15.6% | -1.44%
COc1cc2c3cc1Oc1c(OC)c(OC)cc4c1[C@@H](Cc1ccc(O)c(c1)Oc1ccc(cc1)C[C@@H]3N(C)CC2)N(C)CC4 | 11.4% | 68.5%
C[N+]1([O-])[C@@H]2CC[C@H]1C[C@H](OC(=O)C(CO)c1ccccc1)C2 (some centres undefined) | 25.9% | -2.78%
COc1ccc2cc1Oc1ccc(cc1)C[C@H]1c3c(cc4c(c3Oc3cc5c(cc3OC)CCN(C)[C@@H]5C2)OCO4)CCN1C | 8.59% | 40.6%
Cc1cc(=O)oc2cc(O)ccc12 | 4.46% | 0.88%
C[C@@H]1C[C@H]2O[C@@H]2/C=C\C=C\C(=O)Cc2c(Cl)c(O)cc(O)c2C(=O)O1 | 17.4% | -1.22%
C[C@H]1O[C@@H](O[C@H]2[C@@H](O)C[C@H](O[C@H]3[C@@H](O)C[C@H](O[C@H]4CC[C@@]5(C)[C@H](CC[C@@H]6[C@@H]5CC[C@]5(C)[C@@H](C7=CC(=O)OC7)CC[C@]65O)C4)O[C@@H]3C)O[C@@H]2C)C[C@H](O)[C@@H]1O | -1.83% | -0.78%
O=c1cc(-c2ccc(O)c(O)c2)oc2cc(O)c([C@@H]3O[C@H](CO)[C@@H](O)[C@H](O)[C@H]3O)c(O)c12 | 23.9% | -4.72%
O=C1Cc2c([nH]c3ccc(Br)cc23)-c2ccccc2N1 | -7.55% | -1%
CCC12C=CCN3CC[C@@]4(c5ccc(OC)cc5N(C)[C@H]4[C@@](O)(C(=O)OC)[C@@H]1OC(C)=O)[C@@H]32 (some centres undefined) | 2.49% | -7.45%
C[C@@H]1O[C@@H](O[C@H]2C[C@@H](O)[C@]3(CO)[C@H]4[C@H](O)C[C@]5(C)[C@@H](C6=CC(=O)OC6)CC[C@]5(O)[C@@H]4CC[C@]3(O)C2)[C@H](O)[C@H](O)[C@H]1O | -3.72% | 5.11%
CN1C(=O)C[C@H](C(=O)O)[C@H]1c1cccnc1 (relative stereo) | -2.93% | -4.39%
